Columns and labels:
[1] = tested on: KB cells which express a high cell surface FA receptor (FAR); experiment: Cellular uptake/binding of dendrimers in high-FAR KB cells, flow cytometry; type: cell-based, human
Description: (§1) Cell culture and treatment.
(§2) Flow Cytometry and Confocal Microscopy. The standard fluorescence of the dendrimer solutions was quantified using a Beckman spectrofluorimeter. For flow cytometric analysis of the uptake of the targeted polymer, cells were trypsinized and suspended in PBS containing 0.1% bovine serum albumin (PBSB) and analyzed using a Becton Dickinson FACScan analyzer. The FL1-fluorescence of 10,000 cells was measured and the mean fluorescence of gated viable cells was quantified. Confocal microscopic analysis was performed in cells plated on a glass cover-slip, using a Carl Ziess confocal microscope. Fluorescence and differential interference contrast (DIC) images were collected simultaneously using an argon laser, using the appropriate filters for FITC.
The cellular uptake of the dendrimers was measured in KB cells which express a high cell surface FA receptor (FAR). The FA-conjugated dendrimers bound to the cells in a dose-dependent fashion, with 50% binding at 10-15 nM for both the G5-FITC-FA and G5-FITC-FA-MTX, while the control dendrimer G5-FITC was not detected in the KB cells (See, e.g., FIG. 18A). Identical binding curves were obtained for the G5-FITC-FA and G5-FITC-FA-MTX when the fluorescence obtained was normalized for the quenching observed in the standard solutions of the dendrimers (See e.g., FIG. 18B).
(§3) The effect of free FA on the uptake of the dendrimers was tested in KB cells that express both high and low FAR. The binding of the conjugates to the low FAR-expressing KB cells was 30% of that of the high FAR-expressing cells for both the G5-FITC-FA and G5-FITC-FA-MTX (See, for e.g., FIG. 19, left panel). […] The binding and internalization of the dendrimers to KB cells was assessed by confocal microscopy. KB cells were incubated with 250 nM of the indicated dendrimers for 24 hours and confocal images were taken. Conjugates containing the targeting molecule FA internalized into KB cells within 24 h (See, e.g., FIG. 20).

[2] = tested on: low FAR-expressing KB cells; experiment: Cellular uptake/binding of dendrimers in low-FAR KB cells, flow cytometry; type: cell-based, human
Description: as §1, §2, §3
Time course and dose dependent inhibition of cell growth.

KB cells [3] = experiment: Inhibition of cell growth by XTT assay; type: cell-based, human; settings: for inhibition of cell growth, XTT: 1, 2 or 3 days
Description: as §1
Evaluation of dendrimer cytotoxicity.
Because the binding of the conjugate to KB cells reaches maximal uptake within 1 h (Quintana et al, 2002. Pharmaceutical Research 19: 1310-1316.), the effect of the G5-FI-FA-MTX on cell growth was initially tested by pre-incubation of cells with the conjugate for 1 h, followed by incubation in a drug-free medium for 5 d. […] When the cells were pre-incubated with dendrimers for 4 h, there was a modest decrease of about 10% in cell growth as determined by XTT assay. The cytotoxicity measurements were therefore done by incubation with the dendrimer for a minimum of 24 h, a pre-incubation time period shown to induce significant cytotoxicity.
The inhibition of cell growth induced by the conjugates was also tested by XTT assay which is based on the conversion of XTT to formazan by the active mitochondria of live cells (See, e.g., Roehm et al, J Immunol Methods 142, 257 (1991)).
As free FA blocks the uptake of the dendrimers as well as rescues cells from MTX-induced cytotoxicity, the effect of pre-incubation of cells with excess FA on the anti-proliferative effect of G5-FITC-FA-MTX was tested. KB cells were exposed to different concentrations of the conjugate or free MTX for 24 h in the absence or presence of 50 μM FA. The incubation medium was removed, the cells were rinsed and incubated with fresh medium for 5 additional days in the absence of the drugs, and the XTT assay was performed (See, e.g., FIG. 24, □, ▪, represents cells treated with MTX; Δ, ▴, represents cells treated with G5-FITC-FA-MTX).
The anti-proliferative effect of the MTX-conjugates was compared to conjugates that lacked either the FA or the FITC molecule. KB cells were incubated with 30 nM of the conjugates (=150 nM effective MTX concentration) for 24 h and the incubation medium was removed. The cells were rinsed and incubated for an additional 5 d in fresh medium in the absence of the drugs, and the XTT assay was performed.

s.c. human KB xenografts = experiment: Targeted drug delivery, tumor growth and survival in SCID mice with KB xenografts; type: in vivo, SCID CB-17 mice; settings: first trial, up to 15 injections; cumulative 5.0 mg/kg methotrexate equivalents or equimolar dendrimer
Description: Recipient animal and tumor model.
Delivery of targeted nanoparticle therapeutic. Twice weekly, SCID mice with s.c. KB xenografts, starting on day 4 after tumor implantation, received via the tail vein an injection of either targeted or nontargeted conjugate containing methotrexate, a conjugate without methotrexate, free methotrexate, or saline as a control. The compounds were delivered in a 0.2 mL volume of saline per 20 g of mouse. The single dose of methotrexate delivered each time equaled 0.33 mg/kg. The higher doses of 1.67 and 3.33 mg/kg free methotrexate were also tested. The conjugates were delivered at equimolar concentration of methotrexate calculated based on the number of methotrexate molecules present in a nanoparticle. The conjugate without methotrexate was delivered at equimolar concentration of dendrimer. In the initial trial, six groups of mice with five mice in each group received up to 15 injections. In the follow-up trial, mice received up to 28 injections dependent on their survival. The body weights of the mice were monitored throughout the experiment as an indication of adverse effects of the drug. Histopathology of multiple organs was done at the termination of each trial and each time mouse had to be euthanized due to toxic effects or tumor burden. Tissues from lung, heart, liver, pancreas, spleen, kidney, and tumor were analyzed. Additionally, cells were isolated from tumors, stained with targeted fluorescein-labeled conjugate, and tested for the presence of folic acid receptors using flow cytometer.
Targeted drug delivery to tumor cells through the folate receptor. The efficacy of different doses of conjugates was tested on SCID CB-17 mice bearing s.c. human KB xenografts and was compared with equivalent and higher doses of free methotrexate. Mice were maintained on the folic acid-deficient diet for 3 weeks before injection of the KB tumor cells to achieve circulating levels of folic acid that approach those in human serum and to prevent down-regulation of folate receptors on tumor xenografts (See, Mathias et al., J Nucl Med 29, 1579 (1998)). Six groups of SCID mice with five mice in each group were injected s.c. on one flank with 5×10^6 KB cells in 0.2 mL PBS suspension. The highest total dose of G5-FI-FA-MTX therapeutic used equals 55.0 mg/kg and is equivalent to a 5.0 mg/kg total cumulative dose of free methotrexate (FIG. 29). The therapeutic dose of the conjugate was compared with three cumulative doses of free methotrexate equivalent to 33.3, 21.7, and 5.0 mg/kg accumulated in 10 to 15 injections based on mouse survival. Saline and the conjugate without methotrexate (G5-FI-FA) were used as controls.

[4] = mouse, in vivo
Text: Recipient animal and tumor model. Immunodeficient, 6- to 8-weekold athymic nude female mice [Sim:(NCr) nu/nu fisol] were purchased from Simonsen Laboratories, Inc. (Gilroy, Calif.). Five- to 6-week-old Fox Chase severe combined immunodeficient (SCID; CB-17/lcrCrl-scidBR) female mice were purchased from the Charles River Laboratories (Wilmington, Mass.) and housed in a specific pathogen-free animal facility at the University of Michigan Medical Center in accordance with the regulations of the University's Committee on the Use and Care of Animals as well as with federal guidelines, including the Principles of Laboratory Animal Care. Animals were fed ad libitum with Laboratory Autoclavable Rodent Diet 5010 (PMI Nutrition International, St. Louis, Mo.). Three weeks before tumor cell injection, the food was changed to a folate-deficient diet (TestDiet, Richmond, Ind.). For urine and feces collection, animals were housed in metabolic rodent cages (Nalgene, Rochester, N.Y.).
Tumor cell line. The KB human cell line, which overexpresses the folate receptor (See, e.g., Turek et al, J Cell Sci 106, 423 (1993)), was purchased from the American Type Tissue Collection (Manassas, Va.) and maintained in vitro at 37° C., 5% CO2 in folate-deficient RPMI 1640 supplemented with penicillin (100 units/mL), streptomycin (100 μg/mL), and 10% heat-inactivated fetal bovine serum. Before injection in the mice, the cells were harvested with trypsin-EDTA solution, washed, and resuspended in PBS. The cell suspension (5×10^6 cells in 0.2 mL) was injected s.c. into one flank of each mouse using a 30-gauge needle. In the biodistribution studies, the tumors were allowed to grow for 2 weeks until reaching ˜0.9 cm^3 in volume. The formula chosen to compute tumor volume was for a standard volume of an ellipsoid, where V= 4/3π (½ length×½ width×½ depth). With an assumption that width equals depth and […], the formula used was V=½×length×width^2. Targeted drug delivery using conjugate injections was started on the fourth day after implantation of the KB cells.
Biodistribution and excretion of tritiated dendrimer. […] Both tritiumlabeled conjugates were delivered at equimolar concentrations of the modified dendrimer. At 5 minutes, 2 hours, 1 day, 4 days, and 7 days postinjection, the animals were euthanized and samples of tumor, heart, lung, liver, spleen, pancreas, kidney, and brain were taken. […] The mice were euthanized at 5 minutes, 1 day, and 4 days following injection, and tissues were harvested as above. Blood was collected at each time point via cardiac puncture. Each group included three to five mice. Urine and feces samples were collected at 2, 4, 8 and 12 hours and 1, 2, 3, and 4 days.
Radioactive tissue samples were prepared as described in Nigavekar et al, Pharm Res 21, 476 (2004). The tritium content was measured in a liquid scintillation counter (LS 6500, Beckman Coulter, Fullerton, Calif.). The values of measured radioactivity were adjusted for the counting efficiency of the instrument and used to derive radioactivity (1 μCi=2.22×10^6 dpm) per sample. These values were then normalized by tissue weight and the specific radioactivity of the conjugates was reported as a percentage of the injected dosage (% ID/g). The excreted radioactivity (dendrimer) via urine and feces was reported as a percentage of the injected dosage (% ID).
Biodistribution of tritiated dendrimers. […] The mice were maintained on a folate-deficient diet for the duration of the experiment to minimize the circulating levels of folic acid (See, e.g., Mathias et al., J Nucl Med 29, 1579 (1998)). […] Mice were evaluated at various time points (5 minutes to 7 days) following i.v. administration of the conjugates.

KB cells [5] = experiment: Inhibition of cell growth by total cell protein; settings: 150 nM FA with 150 nM MTX, 24 h, then 6 d fresh medium; total cell protein
Description: Cell culture and treatment. KB cells were maintained in folate-free medium containing 10% serum (See, e.g., Quintana et al, Pharm. Res. 19, 1310 (2002)) to provide extracellular FA similar to that found in human serum. Cells were plated in 12-well plates for uptake studies, in 24-well plates for cell growth analysis, and in 96-well plates for XTT assay. Cells were rinsed with FA-free medium containing dialyzed serum and incubated at 37° C. with dendrimer-drug conjugates for the indicated time periods and concentrations. KB cells were also maintained in RPMI medium containing 2 μM FA to obtain cells which express low FAR.
Evaluation of dendrimer cytotoxicity. Cell growth was determined by assay of the total protein in lysates of treated cells using a bicinchoninic acid reagent (PIERCE, and by XTT assay, using a kit from Roche.
Time course and dose dependent inhibition of cell growth. Previous studies have shown that MTX-induced cytotoxicity is detectable in vitro only if the medium is completely deprived of FA (See, e.g., Sobrero & Bertino, Int. J. Cell Cloning 4, 51 (1986)). The effect of the trifunctional dendrimers on cell growth was tested in cells incubated in a FA-deficient medium. Cells were treated with 300 nM conjugates (equivalent of 1500 nM MTX) or 1500 nM free MTX for 1-4 days, and cell proliferation was determined by estimation of cellular protein content. Cells were treated for 2 days with different concentrations of the conjugates or free MTX (the conjugate concentration is given as MTX equivalents, with 5 MTX per dendrimer molecule). KB cells which express high and low FAR were incubated with 30 nM of the dendrimers for 1 hr at 37° C., rinsed, and the fluorescence of cells was determined by flow cytometric analysis (See. e.g., FIG. 21, left panel).
KB cells were treated with 150 or 500 nM MTX in the presence or absence of equimolar concentrations of free FA for 24 h. […] The cells were rinsed to remove the drugs and incubated with fresh medium for an additional 6 d, and total cell protein was determined.

[6] = 50 μM FA, 24 h, then 5 days drug-free, XTT

Molecule | inhibition of cell growth, XTT (KB cells [3]) | amount in feces [4] | concentration in KB tumor [4] | concentration in liver [4] | time of excretion, primarily through the kidney [4] | further results
G5-(Ac)82-(FITC)5-(FA)5 [G5-FITC-FA] | not growth-inhibitory | – | – | – | – | effect of free FA on uptake, high-FAR expressing cells ([1]; 50 μM FA, dendrimer 30 nM): completely blocked; binding to low FAR-expressing KB cells relative to high FAR-expressing cells [2]: 30%; effect of free FA on uptake, low-FAR expressing cells ([2]; 50 μM FA, dendrimer 30 nM): completely blocked; effect on tumor growth (s.c. human KB xenografts): no therapeutic effect
G5-(Ac)50-(Ac-3H)54 [G5-^3H] | – | very low amounts | decreased rapidly | decreased rapidly | ≤ 24 h | –
G5-(Ac)50-(Ac-3H)54-(FA)6 [G5-^3H-FA] | – | very low amounts | increases over the first 4 days | increases over the first 4 days | ≤ 24 h | cumulative clearance compared with G5-3H [4]: lower
G5-(Ac)82-(FITC)5 [G5-FITC] | not growth-inhibitory | – | – | – | – | detection of dendrimer in KB cells ([1]; control dendrimer without FA): not detected
Nc1nc2ncc(CNc3ccc(C(=O)N[C@@H](CCC(=O)O)C(=O)O)cc3)nc2c(=O)[nH]1 [FA, Folic Acid, reference compound] | – | – | – | – | – | effect of excess free FA on growth inhibition by conjugate or free MTX (KB cells [3]; [6]): blocked growth inhibition; increase of cell growth above control cells (KB cells [3]; [6]): 20%; reversal of MTX-induced growth-arrest by FA (KB cells [5]): almost completely reversed

— patent US20090104119A1, “Dendrimer Based Compositions And Methods Of Using The Same” (priority 2004, published 2009)
